Experimental data published in US20260123631A1, “NATURAL PORPHIN SALT AND USE THEREOF AS PLANT GROWTH REGULATOR AND PLANT IMMUNITY INDUCER” (NANJING BOSTEC BIOLOGICAL ENGINEERING CO., LTD, priority 2022, published 2026).

What was measured:
[1] = Dilution and pH determination for sample solutions; format: physicochemical
Description: Method: 0.2500 g of a sample was accurately weighed and added to a 25 mL volumetric flask, dissolved with purified water, and diluted to a specified scale to prepare a 1.00% (10,000.0 ppm) initial solution. The initial solution was diluted with purified water in different ratios to prepare a series of solutions with a concentration of 1,000.0 ppm to 0.1 ppm. A pH value of each sample was determined three times.

cotton = experiment: Cotton yield in the verticillium wilt experiment; format: in vivo, cotton (Xinluzhong 66)
Description: (§1) Method: A total of five treatments were set, including: the sample in three concentrations; the positive control; and the blank control. An agent was sprayed once at each of a seedling stage (May 28) and a bud stage (June 28) of cotton, where a concentration was adjusted each time. Concentration changes of the sodium iron chlorophyllin and controls (first to fifth treatments) were as follows:
The harvesting was conducted on Nov. 15, 2020. […] The growth of cotton was first counted. Then, the harvesting was conducted, and a yield increase rate was calculated.

[2] = system: verticillium wilt in cotton; experiment: Spraying on cotton to control verticillium wilt; format: in vivo, cotton (Xinluzhong 66)
Description: as §1, with “follows: [table] […] A three-point survey method was adopted for each treatment, and 100 plants were selected at each point. A control effect was surveyed.” for “follows:”

rice = experiment: Spraying on flooded rice; format: in vivo, rice (Nanjing 9108); settings: 10.0 ppm solution, 1.2 L/mu (12.0 mg/mu), aerial application after 10 d waterlogging; moisture content 16.5%
Description: Waterlogging: On Jul. 10, 2021, an area of 20 mu was flooded. The floodwater receded on July 20. During the 10 d of waterlogging, the plant was totally submerged for nearly 4 d and was mostly submerged for nearly 6 d. After the floodwater receded, rice plants were weak and had yellow and drooping leaves.
Method: A 10.0 ppm sodium iron chlorophyllin solution was sprayed on 10 mu of land through aerial application at an average amount of 1.2 L/mu (sodium iron chlorophyllin amount: 12.0 mg/mu). 10 mu of land was taken as a blank control (0 mg/mu).

mung bean seedlings = experiment: Inducing adventitious roots from hypocotyls of mung bean; format: in vivo; settings: day 7
Summary of the method: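 Cuttings taken 3 cm below the first true leaf node from 7–8 cm seedlings, roots removed, held in 0.010 ppm or 0.1 ppm salt samples in 400-fold diluted hydroponic nutrient solution in darkened bottles. Kept 7 d at 20–25° C with solution changed every 2 d; adventitious root number and total length per seedling averaged on day 7.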

chlorophyllase = experiment: In vitro chlorophyllase-inhibiting activity test; format: biochemical, mung bean; settings: substrate chlorophyll 120 ppm, sample 0.3 ppm to 30.0 ppm
Description: A chlorophyllase inhibition rate of a salt sample solution at each concentration was determined, and an IC50 value for a chlorophyllase inhibition activity of a salt sample was calculated.

[3] = Stability of sample solutions in the dark/under light; format: physicochemical; settings: under light 30,000 lux, salts in water, acidic reference in 30% to 50% ethanol
Summary of the method: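 Salt in water, or acidic reference in 30–50% aqueous ethanol, at about 10 ppm; UV absorbance scanned 200–800 nm at 0, 1, 2, 3 h, stored at 25° C dark or under 30,000 lux light. Relative content = max-peak absorbance at each time divided by 0 h value (100%).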

tomato = experiment: Spraying on tomato to increase a yield; format: in vivo, tomato (Jinfan 1615); settings: 0.05 ppm sprayed twice; for Yield increase rate: versus control
Description: During cultivation, flat planting, plastic mulching, seedling transplanting, and pressurized drip irrigation were adopted. On April 29, seedlings were transplanted at 2,600 seedlings/mu. An area of 20 mu was adopted for each of control and treatment groups. Each treatment region was sprayed with a sodium iron chlorophyllin solution at a concentration of 0.05 ppm twice in an early flowering stage (May 22, 2021) and a fruit setting stage (Jun. 5, 2021), respectively.
The harvesting was conducted on August 3. During the harvesting, 5 plants were continuously and randomly selected from each treatment for sampling statistics.

[4] = First treatment (0.167 / 0.500 ppm)
[5] = Second treatment (0.500 / 0.188 ppm)
[6] = Third treatment (1.000 / 0.833 ppm)
[7] = First treatment (0.167 ppm seedling stage, 0.500 ppm bud stage), first survey (June 28)
[8] = First treatment (0.167 ppm seedling stage, 0.500 ppm bud stage), second survey (August 10)
[9] = Second treatment (0.500 ppm seedling stage, 0.188 ppm bud stage), first survey (June 28)
[10] = Second treatment (0.500 ppm seedling stage, 0.188 ppm bud stage), second survey (August 10)
[11] = Third treatment (1.000 ppm seedling stage, 0.833 ppm bud stage), first survey (June 28)
[12] = Third treatment (1.000 ppm seedling stage, 0.833 ppm bud stage), second survey (August 10)

sodium iron chlorophyllin
pH ([1]; 0.1 ppm in purified water): (6.68)
pH ([1]; 1.0 ppm in purified water): (6.95)
pH ([1]; 10.0 ppm in purified water): (7.14)
pH ([1]; 20.0 ppm in purified water): (7.52)
pH ([1]; 30.0 ppm in purified water): (7.63)
pH ([1]; 100.0 ppm in purified water): (8.18)
pH ([1]; 1000.0 ppm in purified water): (10.05)
pH ([1]; 10000.0 ppm in purified water): (10.87)
Actual seed cotton yield per mu (cotton; [4]): 380.8 kg/mu
Average cotton boll weight (cotton; [4]): 5.2 g
Effective cotton boll number in 0.01 mu (cotton; [4]): 812.0
Yield increase rate (cotton; [4]): 7.94%
Actual seed cotton yield per mu (cotton; [5]): 374.9 kg/mu
Average cotton boll weight (cotton; [5]): 5.3 g
Effective cotton boll number in 0.01 mu (cotton; [5]): 786.1
Actual seed cotton yield per mu (cotton; [6]): 386.9 kg/mu
Average cotton boll weight (cotton; [6]): 5.3 g
Effective cotton boll number in 0.01 mu (cotton; [6]): 812.0
Yield increase rate (cotton; [6]): 9.66%
Average diseased plant rate [2, 7]: 2.2%
Control effect [2, 7]: 35.29%
Average diseased plant rate [2, 8]: 5.6%
Control effect [2, 8]: 35.63%
Average diseased plant rate [2, 9]: 2.3%
Control effect [2, 9]: 32.35%
Average diseased plant rate [2, 10]: 4.8%
Control effect [2, 10]: 44.83%
Average diseased plant rate [2, 11]: 1.8%
Control effect [2, 11]: 47.06%
Average diseased plant rate [2, 12]: 4.1%
Control effect [2, 12]: 49.42%
yield of the treatment field (rice): 720 kg/mu
Adventitious root number (mung bean seedlings; 0.01 ppm): 14.51 root/seedling
Total adventitious root length (mung bean seedlings; 0.01 ppm): 20.06 cm/seedling
Adventitious root number (mung bean seedlings; 0.1 ppm): 13.67 root/seedling
Total adventitious root length (mung bean seedlings; 0.1 ppm): 19.40 cm/seedling
IC50 for chlorophyllase inhibition activity (chlorophyllase): 5.41 ppm
Relative content ([3]; 1 h): 61.61%
Relative content ([3]; 2 h): 54.63%
Relative content ([3]; 3 h): 53.29%
Average single-fruit weight (tomato): 51.3 g
Ear number/plant (tomato): 6.9
Green fruit number/plant (tomato): 13.8 fruit
Red fruit number/plant (tomato): 46.4 fruit
Yield per mu (tomato): 6188.8 kg/mu
increase of red-to-green fruit ratio compared with the control (tomato): 5.91%
red-to-green fruit ratio (tomato): 3.36
Yield increase rate (tomato): 27.15%
Yield increase rate (tomato; listed as sodium iron chlorophyllin): more than 27%
